Results on three molecules are retold here after patent publication US10836763B2, “5 to 7 membered heterocyclic amides as JAK inhibitors” (priority 2018, dated 2020).

Where two headings read alike, the source gives them in different places.

Series [1] in a line: Pharmacokinetics in plasma and lung in mouse. Type of series: in vivo. To be noted: BALB/c mice, single oral aspiration, 0.2 mg/mL, 50 μL; for Kp / AUC(0-t): mouse, other: oral aspiration into the trachea, 10 µg/mouse; for Kp: lung / plasma, read-out: Lung Tissue:Plasma AUC ratio; for AUC(0-t): plasma, read-out: Plasma AUC(0-24). The procedure:
Assay 6: Pharmacokinetics in Plasma and Lung in Mouse
Plasma and lung concentrations of test compounds and ratios thereof were determined in the following manner. BALB/c mice from Charles River Laboratories were used in the assay. Test compounds were individually formulated in 20% propylene glycol in pH 4 citrate buffer at a concentration of 0.2 mg/mL and 50 μL of the dosing solution was introduced into the trachea of a mouse by oral aspiration. At various time points (typically 0.167, 2, 6, 24 hr) post dosing, blood samples were removed via cardiac puncture and intact lungs were excised from the mice.

In series [2] the test system is GM-CSF stimulated STAT5 phosphorylation in CD14+ monocytes. Nature of the series: Cellular JAK potency assay: inhibition of GM-CSF-induced pSTAT5. To be noted: Homo sapiens, Monocyte, 0.25 h, read-out: pIC50, inhibition of GM-CSF-induced pSTAT5 (converted). Type of series: cell-based. The method, then: Assay 15: Cellular JAK Potency Assay: Inhibition of GM-CSF-Induced pSTAT5
The potency of test compounds for inhibition of granulocyte-macrophage colony-stimulating factor (GM-CSF) stimulated STAT5 phosphorylation was measured in CD14-positive (CD14+) monocytes derived from human whole blood (Stanford Blood Center) using flow cytometry. Because GM-CSF signals through JAK, this assay provides a measure of JAK cellular potency.
Monocytes were identified using a fluorescein isothiocyanate (FITC) conjugated anti-CD14 antibody (Clone RM052, Beckman Coulter), and an Alexa Fluor 647 conjugated anti-pSTAT5 antibody (pY694, BD Biosciences) was used to detect STAT5 phosphorylation.
Human peripheral blood mononuclear cells (PBMC) were isolated from human whole blood of healthy donors using a ficoll gradient. […] Cells were washed twice with FACS buffer, and then re-suspended in 1:10 […] Alexa Fluor 647:FACS buffer (100 μL) for 30 min at RT in the dark, washed twice in FACS buffer, and analyzed using a MACSQuant flow cytometer (Miltenyi).
To determine the inhibitory potency of the test compound, the median fluorescent intensity (MFI) of pSTAT5 was measured in CD14+ monocytes. IC50 values were determined from analysis of the inhibition curves of MFI vs compound concentration. Data are expressed as pIC50 (negative decadic logarithm IC50) values.

In series [3] the test system is IL-12 stimulated STAT4 phosphorylation in CD3+ T cells. In words: Cellular JAK potency assay: inhibition of IL-12-induced pSTAT4. It is filed as cell-based. To be noted: Homo sapiens, T-cell, 0.5 h, read-out: pIC50, inhibition of IL-12-induced pSTAT4 (converted). The procedure: Assay 16: Cellular JAK Potency Assay: Inhibition of IL-12-Induced pSTAT4
The potency of test compounds for inhibition of interleukin-12 (IL-12) stimulated STAT4 phosphorylation was measured in CD3-positive (CD3+) T cells derived from human whole blood (Stanford Blood Center) using flow cytometry. Because IL-12 signals through JAK, this assay provides a measure of JAK cellular potency.
CD3+ T cells were identified using a phycoerythrin (PE) conjugated anti-CD3 antibody (clone UCHT1, BD Biosciences), and an Alexa Fluor 647 conjugated anti-pSTAT4 antibody (clone 38/p-Stat4, BD Biosciences) was used to detect STAT4 phosphorylation.
Human peripheral blood mononuclear cells (PBMC) were isolated from human whole blood of healthy donors using a ficoll gradient. […] After incubation, cells were washed twice in FACS buffer before being analyzed using a MACSQuant flow cytometer (Miltenyi). To determine the inhibitory potency of the test compound, the median fluorescent intensity (MFI) of pSTAT4 was measured in CD3+ T cells. IC50 values were determined from analysis of the inhibition curves of MFI vs compound concentration. Data are expressed as pIC50 (negative decadic logarithm IC50) values.

With `CCCN1Cc2[nH]c(-c3n[nH]c4cc(-c5ccc(O)cc5CC)ccc34)nc2C[C@H]1C(=O)N1CCN(CCO)CC1` [Compound 1, (S)-(2-(6-(2-ethyl-4-hydroxyphenyl)-1H-indazol-3-yl)-5-propyl-4,5,6,7-tetrahydro-3H-imidazo[4,5-c]pyridin-6-yl)(4-(2-hydroxyethyl)piperazin-1-yl)methanone], in series [1], the “Lung Tissue AUC(0-24)” value was 64.6 µg·h/g, the Kp came out at 111 and the AUC(0-t) was 581 ng·h/mL. Besides, the IC50 in series [2] (CD14+ monocytes, GM-CSF 0.3 ng/mL, 15 min, flow cytometry) was 200 nM. The IC50 in series [3] (CD3+ T cells, IL-12 10 ng/mL, 30 min, flow cytometry) is 631 nM.
For the molecule `CCc1cc(O)ccc1-c1ccc2c(-c3nc4c([nH]3)CN(C(C)C)[C@H](C(=O)N3CCCN(C)CC3)C4)n[nH]c2c1` [Compound 4, (S)-(2-(6-(2-ethyl-4-hydroxyphenyl)-1H-indazol-3-yl)-5-isopropyl-4,5,6,7-tetrahydro-3H-imidazo[4,5-c]pyridin-6-yl)(4-methyl-1,4-diazepan-1-yl)methanone], the IC50 is 200 nM in series [2] and 1000 nM in series [3].
On to `CCc1cc(O)ccc1-c1ccc2c(-c3nc4c([nH]3)CN(C)[C@H](C(=O)N3CCN(CCO)C[C@H]3C)C4)n[nH]c2c1` [Compound 5, ((S)-2-(6-(2-ethyl-4-hydroxyphenyl)-1H-indazol-3-yl)-5-methyl-4,5,6,7-tetrahydro-3H-imidazo[4,5-c]pyridin-6-yl)((R)-4-(2-hydroxyethyl)-2-methylpiperazin-1-yl)methanone], for which, in series [1], the “Lung Tissue AUC(0-24)” value is 29.9 µg·h/g, the Kp came out at 49.9 and the AUC(0-t) is 599 ng·h/mL.
